From patent US9969749B2, “Inhibitors of IRAK4 activity” (MERCK SHARP & DOHME CORP., priority 2014, dated 2018) come the findings set out here.

The term IC50 denotes the concentration at which inhibition is half-maximal.

Sequence of IRAK4 (Q9NWZ3 whole entry): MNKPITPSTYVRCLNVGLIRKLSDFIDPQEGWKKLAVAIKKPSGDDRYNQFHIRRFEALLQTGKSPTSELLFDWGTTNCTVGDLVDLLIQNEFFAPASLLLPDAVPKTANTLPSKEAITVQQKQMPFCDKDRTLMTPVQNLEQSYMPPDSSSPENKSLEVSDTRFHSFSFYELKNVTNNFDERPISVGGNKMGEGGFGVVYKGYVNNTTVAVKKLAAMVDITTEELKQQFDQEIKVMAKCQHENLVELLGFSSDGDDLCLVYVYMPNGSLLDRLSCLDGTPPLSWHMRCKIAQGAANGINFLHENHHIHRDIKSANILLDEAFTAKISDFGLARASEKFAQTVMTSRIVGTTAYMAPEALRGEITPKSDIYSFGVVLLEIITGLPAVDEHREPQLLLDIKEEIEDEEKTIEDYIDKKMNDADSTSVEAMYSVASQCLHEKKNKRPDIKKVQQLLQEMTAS

This assay has as its target IRAK4 (Homo sapiens (Human), UniProt Q9NWZ3). Kind of assay: IRAK4 Kinase Assay (IMAP fluorescence polarization). Type of assay: biochemical. The conditions noted are these: 0.5 nM GST tagged IRAK4, 100 μM ATP, 100 nM fluorescent peptide substrate RP7030, 30 minutes at 25° C. In short, it runs like this: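 GST-tagged IRAK4 (0.5 nM) phosphorylates 100 nM fluorescent peptide with 100 μM ATP in 10 mM Tris pH 7.2, 1 mM MgCl2, 1 mM DTT, 0.01% Tween 20 for 30 min at 25 °C. Phosphorylation read as IMAP nanoparticle-binding fluorescence polarization after stop reagent.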
In the case of `Cc1n[nH]cc1-c1ccc2ncnc(N[C@H]3CC[C@H](N4CCOCC4)CC3)c2c1` [Example 2-20, 6-(3-methyl-1H-pyrazol-4-yl)-N-[trans-4-(morpholin-4-yl)cyclohexyl]quinazolin-4-amine], the IC50 was determined as 22 nM. As for `Cc1c(-c2ccc3ncnc(N[C@H]4CC[C@H](N5CCOCC5)CC4)c3c2)cnn1C` [Example 2-21, 6-(1,5-dimethyl-1H-pyrazol-4-yl)-N-[trans-4-(morpholin-4-yl)cyclohexyl]quinazolin-4-amine], the IC50 is 126 nM.

Regarding `Cc1c[nH]c(-c2ccc3ncnc(N[C@H]4CC[C@H](N5CCOCC5)CC4)c3c2)n1` [Example 2-22, 6-(4-methyl-1H-imidazol-2-yl)-N-[trans-4-(morpholin-4-yl)cyclohexyl]quinazolin-4-amine], the 50% inhibitory concentration (IC50) was determined as 492 nM. With `Cc1cn(C)c(-c2ccc3ncnc(N[C@H]4CC[C@H](N5CCOCC5)CC4)c3c2)n1` [Example 2-23, 6-(1,4-dimethyl-1H-imidazol-2-yl)-N-[trans-4-(morpholin-4-yl)cyclohexyl]quinazolin-4-amine] the figure was 1190 nM; with `Cc1n[nH]c(C)c1-c1ccc2ncnc(N[C@H]3CC[C@H](N4CCOCC4)CC3)c2c1` [Example 2-24, 6-(3,5-dimethyl-1H-pyrazol-4-yl)-N-[trans-4-(morpholin-4-yl)cyclohexyl]quinazolin-4-amine], 104 nM. As to `Cc1nc(-c2ccc3ncnc(N[C@H]4CC[C@H](N5CCOCC5)CC4)c3c2)c[nH]1` [Example 2-25, 6-(2-methyl-1H-imidazol-4-yl)-N-[trans-4-(morpholin-4-yl)cyclohexyl]quinazolin-4-amine], 88 nM corresponded to half-maximal inhibition (IC50). This IC50 and that of the molecule before are within 1.5-fold of each other. Take `Cn1ccnc1-c1ccc2ncnc(N[C@H]3CC[C@H](N4CCOCC4)CC3)c2c1` [Example 2-26, 6-(1-methyl-1H-imidazol-2-yl)-N-[trans-4-(morpholin-4-yl)cyclohexyl]quinazolin-4-amine]: the IC50 was found to be 562 nM. Regarding `Cn1ncnc1-c1ccc2ncnc(N[C@H]3CC[C@H](N4CCOCC4)CC3)c2c1` [Example 2-27, 6-(1-methyl-1H-1,2,4-triazol-5-yl)-N-[trans-4-(morpholin-4-yl)cyclohexyl]quinazolin-4-amine], the IC50 is 159 nM. With `c1nc(N[C@H]2CC[C@H](N3CCOCC3)CC2)c2cc(-c3cnoc3)ccc2n1` [Example 2-28, 6-(isoxazol-4-yl)-N-[trans-4-(morpholin-4-yl)cyclohexyl]quinazolin-4-amine] the figure was 2 nM; with `COc1cc(-c2ccc3ncnc(N[C@H]4CC[C@H](N5CCOCC5)CC4)c3c2)cnc1F` [Example 2-29, 6-(6-fluoro-5-methoxypyridin-3-yl)-N-[trans-4-(morpholin-4-yl)cyclohexyl]quinazolin-4-amine], 20 nM.

Regarding `Oc1cc(-c2ccc3ncnc(N[C@H]4CC[C@H](N5CCOCC5)CC4)c3c2)cnc1F` [Example 2-30, 2-fluoro-5-(4-{[trans-4-(morpholin-4-yl)cyclohexyl]amino}quinazolin-6-yl)pyridin-3-ol], the IC50 is less than 0.5 nM.

Take `CN(C)c1cc(-c2ccc3ncnc(N[C@H]4CC[C@H](N5CCOCC5)CC4)c3c2)cnc1F` [Example 2-31, 6-[5-(dimethylamino)-6-fluoropyridin-3-yl]-N-[trans-4-(morpholin-4-yl)cyclohexyl]quinazolin-4-amine]: half-maximal inhibition (IC50) was put at 73 nM.

In turn, `CNc1cc(-c2ccc3ncnc(N[C@H]4CC[C@H](N5CCOCC5)CC4)c3c2)cnc1F` [Example 2-32, 6-[6-fluoro-5-(methylamino)pyridin-3-yl]-N-[trans-4-(morpholin-4-yl)cyclohexyl]quinazolin-4-amine] registered a concentration for half-maximal inhibition (IC50) of 1 nM. To `Fc1cc(-c2ccc3ncnc(N[C@H]4CC[C@H](N5CCOCC5)CC4)c3c2)cnc1Cl` [Example 2-33, 6-(6-chloro-5-fluoropyridin-3-yl)-N-[trans-4-(morpholin-4-yl)cyclohexyl]quinazolin-4-amine] belongs 28 nM.
